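In this assay, cells in 96-well plates receive the compound at five concentrations for 48 hours. Endpoints are linearly interpolated between the surrounding concentrations. At the TGI there is no net growth.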
Experiments:
Experiment in all cases: NCI-60 cell line screen, 48 h
OVCAR-8 ovarian = test system: OVCAR-8 ovarian
CAKI-1 renal = test system: CAKI-1 renal
OVCAR-4 ovarian = test system: OVCAR-4 ovarian
MALME-3M melanoma = test system: MALME-3M melanoma
SNB-19 CNS = test system: SNB-19 CNS
A549 NSCLC = test system: A549 NSCLC
NCI-H23 lung = test system: NCI-H23 lung
SK-MEL-5 melanoma = test system: SK-MEL-5 melanoma
DLD-1 colon = test system: DLD-1 colon
EKVX NSCLC = test system: EKVX NSCLC
A498 renal = test system: A498 renal
KM12 colon = test system: KM12 colon
SNB-75 CNS = test system: SNB-75 CNS
LXFL 529 NSCLC = test system: LXFL 529 NSCLC
ACHN renal = test system: ACHN renal
M14 melanoma = test system: M14 melanoma
SK-MEL-2 melanoma = test system: SK-MEL-2 melanoma
XF 498 CNS = test system: XF 498 CNS
SW-620 colon = test system: SW-620 colon
NCI-H460 lung = test system: NCI-H460 lung
RPMI-8226 leukemia = test system: RPMI-8226 leukemia
SF-295 CNS = test system: SF-295 CNS
MOLT-4 leukemia = test system: MOLT-4 leukemia
CCRF-CEM leukemia = test system: CCRF-CEM leukemia
U251 CNS = test system: U251 CNS
HOP-62 NSCLC = test system: HOP-62 NSCLC
RXF 393 renal = test system: RXF 393 renal
786-0 renal = test system: 786-0 renal
SNB-78 CNS = test system: SNB-78 CNS
UO-31 renal = test system: UO-31 renal
K-562 leukemia = test system: K-562 leukemia
UACC-257 melanoma = test system: UACC-257 melanoma
NCI-H522 lung = test system: NCI-H522 lung
DMS 114 small cell lung = test system: DMS 114 small cell lung
HT29 colon = test system: HT29 colon
KM20L2 colon = test system: KM20L2 colon
NCI-H226 lung = test system: NCI-H226 lung
HCC-2998 colon = test system: HCC-2998 colon
COLO 205 colon = test system: COLO 205 colon
OVCAR-3 ovarian = test system: OVCAR-3 ovarian
OVCAR-5 ovarian = test system: OVCAR-5 ovarian
LOX IMVI melanoma = test system: LOX IMVI melanoma
M19-MEL melanoma = test system: M19-MEL melanoma
SN12C renal = test system: SN12C renal
SF-539 CNS = test system: SF-539 CNS
TK-10 renal = test system: TK-10 renal
HOP-92 NSCLC = test system: HOP-92 NSCLC
HL-60(TB) leukemia = test system: HL-60(TB) leukemia
IGROV1 ovarian = test system: IGROV1 ovarian
SK-MEL-28 melanoma = test system: SK-MEL-28 melanoma
RXF-631 renal = test system: RXF-631 renal
SF-268 CNS = test system: SF-268 CNS
HOP-18 NSCLC = test system: HOP-18 NSCLC
SR leukemia = test system: SR leukemia
DMS 273 small cell lung = test system: DMS 273 small cell lung
HCT-116 colon = test system: HCT-116 colon
UACC-62 melanoma = test system: UACC-62 melanoma
SK-OV-3 ovarian = test system: SK-OV-3 ovarian

Measured: TGI

CC1=C(C(=O)Nc2cc(=O)n(C)c(=O)n2C)C(c2ccco2)C(C(=O)Nc2cc(=O)n(C)c(=O)n2C)=C(C)N1
> 100 µM: OVCAR-8 ovarian | CAKI-1 renal | OVCAR-4 ovarian | MALME-3M melanoma | SNB-19 CNS | A549 NSCLC | NCI-H23 lung | SK-MEL-5 melanoma | DLD-1 colon | EKVX NSCLC | A498 renal | KM12 colon | SNB-75 CNS | LXFL 529 NSCLC | ACHN renal | M14 melanoma | SK-MEL-2 melanoma | XF 498 CNS | SW-620 colon | NCI-H460 lung | RPMI-8226 leukemia | SF-295 CNS | MOLT-4 leukemia | CCRF-CEM leukemia | U251 CNS | HOP-62 NSCLC | RXF 393 renal | 786-0 renal | SNB-78 CNS | UO-31 renal | K-562 leukemia | UACC-257 melanoma | NCI-H522 lung | DMS 114 small cell lung | HT29 colon | KM20L2 colon | NCI-H226 lung | HCC-2998 colon | COLO 205 colon | OVCAR-3 ovarian | OVCAR-5 ovarian | LOX IMVI melanoma | M19-MEL melanoma | SN12C renal | SF-539 CNS | TK-10 renal | HOP-92 NSCLC | HL-60(TB) leukemia | IGROV1 ovarian | SK-MEL-28 melanoma | RXF-631 renal | SF-268 CNS

O=C1CC(O)CC(=O)C1=C(O)CCCCCCCCCCc1ccccc1 (stereo not drawn)
94.7 µM: NCI-H226 lung
59.2 µM: HL-60(TB) leukemia
77.1 µM: SK-MEL-2 melanoma
> 100 µM: OVCAR-8 ovarian | CAKI-1 renal | HOP-18 NSCLC | OVCAR-4 ovarian | SR leukemia | SNB-19 CNS | A549 NSCLC | NCI-H23 lung | SK-MEL-5 melanoma | DLD-1 colon | DMS 273 small cell lung | EKVX NSCLC | KM12 colon | SNB-75 CNS | LXFL 529 NSCLC | ACHN renal | M14 melanoma | XF 498 CNS | SW-620 colon | HCT-116 colon | NCI-H460 lung | UACC-62 melanoma | RPMI-8226 leukemia | SF-295 CNS | MOLT-4 leukemia | CCRF-CEM leukemia | U251 CNS | HOP-62 NSCLC | RXF 393 renal | 786-0 renal | SNB-78 CNS | UO-31 renal | K-562 leukemia | UACC-257 melanoma | NCI-H522 lung | DMS 114 small cell lung | HT29 colon | KM20L2 colon | HCC-2998 colon | SK-OV-3 ovarian | COLO 205 colon | OVCAR-3 ovarian | OVCAR-5 ovarian | LOX IMVI melanoma | M19-MEL melanoma | SN12C renal | SF-539 CNS | TK-10 renal | HOP-92 NSCLC | IGROV1 ovarian | SK-MEL-28 melanoma | RXF-631 renal | SF-268 CNS

Reference: PubChem BioAssay (NCI)
